Laboratory results from patent US12435091B2, “RNA-binding protein multimerization inhibitors and methods of use thereof” (THE UAB RESEARCH FOUNDATION, priority 2020, dated 2025).
Values after ≈ are worked out from the molar mass of the structure shown.

Assays:
[1] = target: AAK1 (Homo sapiens, UniProt Q2M2I8); experiment: SelectScreen kinase profiling, LanthaScreen Binding
Method: (§1) The kinase inhibitory potentials of compounds as described herein (e.g., SRI-42127 and SRI-41664) were evaluated by ThermoFisher Scientific's SelectScreen™ Kinase Profiling Service. The following kinase inhibitory assays were utilized: ZLYTE (Madison, WI) for NTRK1, PIM1, and cMET kinases; LanthaScreen Binding (Madison, WI) for AAK1 kinase; and Adapta (Madison, WI) for IRAK1 kinase.

[2] = system: secreted inflammatory factors of microglia; experiment: ELISA of secreted factors in culture medium of LPS-activated microglia; format: cell-based, mouse
Method: Major chemokines CXCL1, CXCL2 and CCL3 were suppressed by more than 2-fold. There was a mixed effect on markers of M2-like markers, with TGF-β1 and YM1 increasing and IL-10 decreasing. As these inflammatory factors were secreted, they were quantified by ELISA in culture medium. The greatest effect was with IL-6 which was suppressed at a lower dose of SRI-42127 (1.7-fold at 0.1 μM) and nearly 10-fold at 1.0 μM. IL-1β and TNF-α were suppressed by 5-fold at 1.0 μM.

[3] = system: PDGx neurosphere cell lines (JX12p, X14P, XD456, X1524, and JX22p); experiment: RNA-Seq analysis and gene ontology enrichment across all PDGx neurosphere cell lines; format: cell-based; conditions: 3 uM for 12 hours, in four of five neurosphere cell lines
Method: Illumina global RNA-sequencing data were generated by utilizing PDGx neurospheres, which have been treated with a compound as described herein (e.g., SRI-42127, 3 uM) for 12 hours or with vehicle as the control. RNA was isolated by using TRIzol reagent (Invitrogen; Carlsbad, CA). The RNA samples were processed.
The RNA-Sequencing data was generated using glioma neurospheres representing the different molecular subtypes (classical, neuronal, and mesenchymal) in the control (treatment with vehicle) and after treatment with SRI-42127, 3 uM for 12 hours. First, analysis of direct HuR mRNA targets and their corresponding cell signaling pathways was performed by using gene sets, which have been defined as the direct HuR targets following tumor neurosphere treatment with DHTS compound, an established modulator of the HuR/mRNA interaction.
Significant down-regulation of the pathways responsible for i) cell cycle progression, ii) DNA replication, iii) transport mature transcript to cytoplasm, iv) DNA strand elongation, v) capped intron-containing pre-mRNA processing, vi) DNA repair, vii) unwinding of DNA, viii) alpha-linolenic (omega 3) and linoleic (omega 6) metabolism, ix) chromosome maintenance, x) messenger RNA splicing was observed. It is established that HuR can control the centrosome and microtubule organizing center in cancer cells. […]

[4] = aqueous solubility at pH 7.4; format: physicochemical; conditions: aqueous medium at pH 7.4, pH 7.4, aqueous buffer; read-out: Sol @ pH 7.4
Method: (§3) Selected compounds were assessed for their aqueous solubility, Log D and mouse and human liver microsomal stability.

[5] = system: spinal cord injury; experiment: mid-thoracic contusion spinal cord injury in mice; format: in vivo
Method: (§2) Wild-type male mice were subjected to a mid-thoracic contusion injury and then treated with SRI-42127 (15 mg/kg) every 8 hours for 4 days, starting 1 hour after injury. […] Not to be bound by theory, similar to spinal cord injury, chronic pain signaling is triggered by activation of microglia and astroglia in the spinal cord and production of inflammatory mediators (e.g. TNF-α, IL-1β, IL-6, INOS, CCL2) that induce hyperexcitation of sensory neurons in the dorsal horn. Mice underwent sciatic nerve lesioning to produce a spared nerve injury and then received SRI-42127 (15 mg/kg) or vehicle every 6 hours for 4 days (starting 1 h after injury). Mechanical sensitivity was assessed at day 7 post-injury. […] Following this test, a subset of mice in the DMSO-treated group was given an acute administration of SRI-42127 (or DMSO) and their mechanical sensitivity was tested at 30 minutes and 60 minutes post-administration. Acute treatment with SRI-42127 reversed allodynia in these mice for at least 60 minutes (p<0.01, FIG. 21, Panel D).

[6] = Plasma protein binding; format: in vitro ADME
Description: Plasma protein binding for Compound 19 was 96.44%.

[7] = system: allodynia after spared nerve injury; experiment: spared nerve injury (sciatic nerve) model, mechanical sensitivity (Von Frey); format: in vivo; conditions: acute administration to DMSO-treated mice at day 7
Method: as §2

[8] = system: inflammatory cytokine mRNAs in astrocytes; experiment: inflammatory cytokine mRNAs in LPS-stimulated astrocytes; format: cell-based
Method: Next, the impact of SRI-42127 on induction of inflammatory cytokine mRNAs as depicted in FIG. 15, Panel B was assessed. A significant 3-4-fold suppression of mRNA for IL-1β, IL-6, CXCL1, and CCL2 was observed. […] All chemokines were likewise suppressed, including KC, CCL2, CCL3, CCL4, CXCL10, from 2.5 to 8.1-fold.

[9] = Mouse liver microsomal stability in vitro; format: in vitro ADME; conditions: liver microsomes, read-out: MLM t1/2
Method: as §3

[10] = target: IRAK1 (Homo sapiens, UniProt P51617); experiment: SelectScreen kinase profiling, Adapta; format: biochemical
Chain of IRAK1 (P51617 whole entry): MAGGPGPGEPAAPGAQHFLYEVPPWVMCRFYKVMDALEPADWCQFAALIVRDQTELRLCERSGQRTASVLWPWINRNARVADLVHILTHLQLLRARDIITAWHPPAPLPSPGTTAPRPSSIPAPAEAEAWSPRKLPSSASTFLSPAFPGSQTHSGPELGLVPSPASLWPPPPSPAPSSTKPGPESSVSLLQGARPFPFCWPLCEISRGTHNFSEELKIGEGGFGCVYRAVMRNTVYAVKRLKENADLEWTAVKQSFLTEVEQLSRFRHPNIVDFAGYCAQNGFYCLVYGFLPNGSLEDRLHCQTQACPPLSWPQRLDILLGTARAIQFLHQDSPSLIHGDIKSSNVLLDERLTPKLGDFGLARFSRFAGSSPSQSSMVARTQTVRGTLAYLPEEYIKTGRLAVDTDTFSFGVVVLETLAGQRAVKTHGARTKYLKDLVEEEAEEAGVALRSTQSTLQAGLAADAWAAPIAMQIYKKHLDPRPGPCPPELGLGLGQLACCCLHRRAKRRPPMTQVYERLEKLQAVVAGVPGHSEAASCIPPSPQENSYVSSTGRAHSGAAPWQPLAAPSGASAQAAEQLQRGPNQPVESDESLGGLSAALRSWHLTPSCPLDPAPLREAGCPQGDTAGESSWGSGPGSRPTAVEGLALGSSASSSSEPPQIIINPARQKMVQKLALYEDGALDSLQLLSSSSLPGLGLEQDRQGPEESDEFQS
Method: as §1

[11] = target: PIM1 (Homo sapiens, UniProt P11309); experiment: SelectScreen kinase profiling, ZLYTE; format: biochemical
Chain of PIM1 (P11309 whole entry): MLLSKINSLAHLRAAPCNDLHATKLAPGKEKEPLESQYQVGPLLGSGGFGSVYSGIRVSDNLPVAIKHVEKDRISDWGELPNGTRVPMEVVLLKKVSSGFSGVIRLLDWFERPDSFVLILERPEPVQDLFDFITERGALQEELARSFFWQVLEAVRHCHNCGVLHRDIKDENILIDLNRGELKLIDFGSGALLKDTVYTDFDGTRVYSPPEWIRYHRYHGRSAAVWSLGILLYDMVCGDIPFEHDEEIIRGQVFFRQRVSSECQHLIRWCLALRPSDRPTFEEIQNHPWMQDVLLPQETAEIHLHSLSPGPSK
Method: as §1

[12] = target: cMET (Homo sapiens, UniProt P08581); experiment: SelectScreen kinase profiling, ZLYTE; format: biochemical
Chain of cMET (P08581 25-1390): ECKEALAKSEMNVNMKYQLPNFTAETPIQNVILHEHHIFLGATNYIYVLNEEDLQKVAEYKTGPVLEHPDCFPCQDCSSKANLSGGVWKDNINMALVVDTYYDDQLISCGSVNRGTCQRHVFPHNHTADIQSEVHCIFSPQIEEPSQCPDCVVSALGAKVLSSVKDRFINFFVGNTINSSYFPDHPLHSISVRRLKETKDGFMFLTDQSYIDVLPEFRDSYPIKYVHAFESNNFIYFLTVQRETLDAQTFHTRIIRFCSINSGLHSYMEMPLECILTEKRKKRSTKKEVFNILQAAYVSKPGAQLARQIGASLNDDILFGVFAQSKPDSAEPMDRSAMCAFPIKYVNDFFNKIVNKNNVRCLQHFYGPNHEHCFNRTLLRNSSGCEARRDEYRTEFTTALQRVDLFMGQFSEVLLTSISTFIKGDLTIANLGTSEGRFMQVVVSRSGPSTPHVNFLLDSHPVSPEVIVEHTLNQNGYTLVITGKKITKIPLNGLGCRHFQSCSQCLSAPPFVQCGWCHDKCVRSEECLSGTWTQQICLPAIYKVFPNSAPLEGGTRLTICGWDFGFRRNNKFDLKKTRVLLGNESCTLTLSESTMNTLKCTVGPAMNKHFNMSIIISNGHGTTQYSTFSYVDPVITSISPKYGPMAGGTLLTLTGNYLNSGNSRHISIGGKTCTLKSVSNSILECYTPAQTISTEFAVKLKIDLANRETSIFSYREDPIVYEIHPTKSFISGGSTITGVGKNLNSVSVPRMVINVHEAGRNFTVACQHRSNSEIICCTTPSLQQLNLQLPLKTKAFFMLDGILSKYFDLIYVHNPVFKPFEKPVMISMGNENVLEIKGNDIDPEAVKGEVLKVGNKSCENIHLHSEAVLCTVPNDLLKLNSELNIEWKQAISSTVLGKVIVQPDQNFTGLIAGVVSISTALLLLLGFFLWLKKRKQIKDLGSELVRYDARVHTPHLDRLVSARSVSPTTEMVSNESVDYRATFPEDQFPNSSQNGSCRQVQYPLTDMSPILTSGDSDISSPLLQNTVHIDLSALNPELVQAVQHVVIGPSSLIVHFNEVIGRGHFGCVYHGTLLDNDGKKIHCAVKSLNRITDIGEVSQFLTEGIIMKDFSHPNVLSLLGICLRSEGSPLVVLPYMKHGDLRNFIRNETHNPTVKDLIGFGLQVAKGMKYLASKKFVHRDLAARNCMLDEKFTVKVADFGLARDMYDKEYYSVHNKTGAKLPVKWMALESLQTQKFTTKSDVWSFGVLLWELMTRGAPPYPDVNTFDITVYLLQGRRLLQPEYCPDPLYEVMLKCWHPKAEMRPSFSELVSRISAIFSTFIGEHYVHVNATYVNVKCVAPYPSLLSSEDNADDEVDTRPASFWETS
Method: as §1

[13] = system: HMGB1; experiment: nuclear/cytoplasmic localization by confocal microscopy in LPS-activated primary microglia; format: cell-based, mouse; conditions: 0.5 μM for 24 hours
Method: To assess the specificity of SRI-42127 for blocking HuR cytoplasmic translocation, the effect of SRI-42127 on cytoplasmic translocation of HMGB1 was assessed. Like HuR, HMGB1 is nuclear predominant and translocates with microglial activation. Primary microglia were treated with LPS and 0.5 μM of SRI-42127 for 24 hours. Cells were fixed and immunostained for HMGB1 and IBA1. Nuclear/cytoplasmic localization was assessed by confocal microscopy. Total HMGB1 immunofluorescence in each cell (boundaries defined by IBA1 staining), was quantified using Fiji software. The nuclear portion was determined by quantifying the amount of HMGB1 fluorescence that overlapped with DAPI fluorescence. HuR translocation was studied in parallel with the same methodology.
In unactivated microglia (LPS-), both HuR and HMGB1 were nuclear predominant with little to no merged signal with cytoplasmic IBA1 as depicted in FIG. 11, Panel C.

Chain of AAK1 (Q2M2I8 whole entry): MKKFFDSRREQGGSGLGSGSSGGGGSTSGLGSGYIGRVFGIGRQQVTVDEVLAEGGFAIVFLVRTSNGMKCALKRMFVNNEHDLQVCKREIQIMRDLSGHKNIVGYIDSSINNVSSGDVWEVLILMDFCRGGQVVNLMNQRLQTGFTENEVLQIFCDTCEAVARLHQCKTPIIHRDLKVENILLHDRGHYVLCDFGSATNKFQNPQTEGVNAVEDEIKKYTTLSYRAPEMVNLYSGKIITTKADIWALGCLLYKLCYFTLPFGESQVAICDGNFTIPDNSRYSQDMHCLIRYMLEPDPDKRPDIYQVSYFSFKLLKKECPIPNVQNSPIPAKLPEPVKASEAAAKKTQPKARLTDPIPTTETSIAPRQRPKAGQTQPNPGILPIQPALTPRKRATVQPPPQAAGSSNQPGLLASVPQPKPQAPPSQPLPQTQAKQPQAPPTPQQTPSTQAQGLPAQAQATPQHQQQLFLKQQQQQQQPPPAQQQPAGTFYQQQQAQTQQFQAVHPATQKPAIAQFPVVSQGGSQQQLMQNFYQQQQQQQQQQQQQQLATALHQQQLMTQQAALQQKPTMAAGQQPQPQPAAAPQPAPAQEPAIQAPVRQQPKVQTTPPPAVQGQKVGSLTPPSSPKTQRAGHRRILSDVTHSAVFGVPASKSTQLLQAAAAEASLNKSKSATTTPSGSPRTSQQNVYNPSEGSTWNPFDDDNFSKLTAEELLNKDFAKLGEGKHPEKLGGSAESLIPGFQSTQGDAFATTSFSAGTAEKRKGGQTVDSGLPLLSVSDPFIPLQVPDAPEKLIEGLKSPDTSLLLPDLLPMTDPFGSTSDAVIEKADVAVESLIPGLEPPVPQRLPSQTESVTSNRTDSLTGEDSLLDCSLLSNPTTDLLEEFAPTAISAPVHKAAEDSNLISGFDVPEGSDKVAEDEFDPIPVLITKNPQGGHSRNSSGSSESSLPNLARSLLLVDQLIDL

In the case of `CN(c1ccc2ncc(-c3ccc4cn[nH]c4c3)n2n1)C1CCOCC1` [Compound 19], the IC50 [1] is reported as 120 nM, the “suppression of secreted IL-6” value ([2]; 0.1 μM) is reported as 1.7 fold and the “suppression of secreted IL-1β” value ([2]; 1.0 μM) is reported as 5 fold. The “suppression of secreted IL-6” value ([2]; 1.0 μM) was ~10 fold, the “suppression of secreted TNF-α” value ([2]; 1.0 μM) was 5 fold and the “up-regulation of Tubb2A transcript” value [3] was “more than 2 folds”. The solubility [4] was 2.4 µM (≈ 0.836 µg/mL), the “increase in surviving neurons in the epicenter of injury” value ([5]; 15 mg/kg every 8 hours for 4 days, stereology 2 weeks post injury) was > 2 fold and the “increase in neuronal counts by stereology” value ([5]; 4 weeks post SCI (FIG. 21, Panel B)) was > 50%. The fraction unbound [6] was 0.0356, the “duration of reversal of allodynia after acute administration” value [7] was “at least 60 minutes” and the “suppression of mRNA for IL-1β, IL-6, CXCL1, and CCL2” value [8] was 3-4 fold. The “increase of IL-10 mRNA” value ([8]; 1.0 μM) was ~3 fold, the half-life [9] was 3.3 min and the IC50 [10] was 319 nM. The IC50 [11] was 668 nM, the IC50 [12] was > 10000 nM and the “HMGB1 N/C ratio” value [13] was “no effect”.
